Measured values taken from patent US12691100B2, “NMT inhibitor treatment of a senescence-associated disease or disorder of the liver” (Imperial College Innovations Limited, priority 2020, dated 2026).

Test: High fat diet model of nonalcoholic steatohepatitis (NASH)
Type: in vivo, male C57/BL6 mice
Conditions: HFD mice, 10 mg/kg
From the text: For high-fat diet experiments C57BL/6J male mice aged 8-weeks old were placed on Chow or high-fat diet (kcal 40% fat (non-trans-fat Primex Shortening), kcal 20% fructose, 2% cholesterol, D1602230i) for 4 weeks prior to first round of injections. […] Blood was collected prior to each round of injection for physiological assessments. Mice were allowed to rest 4 weeks prior to being culled and organs collected for freezing in OCT, paraffin embedding, blood collection for physiological measurements and tissue snap-freezing for RNA extraction.
For analysis of immune cell composition in whole blood, tail-vein blood was collected 2 days after last treatment. Whole blood was diluted in saline to a volume of […] and ran on a Sysmex XE2100 automated cell counter. Blood glucose levels were determined by collecting whole-blood from tail vein into heparinised tubes (Abraxis), 120-140 μL of whole-blood to be loaded onto a comprehensive diagnostic profile reagent rotor (Abraxis) and run on a VetScan VS2 Chemistry Analyzer (Abraxis: 500-7123).
Immunohistochemical staining—Slides were deparaffinised by washing slides twice in Histoclear™ for 5 min each, followed by 5 min washes in decreasing concentrations of ethanol with 100%, 75%, 50% & 25% ethanol washes before a final wash 5 min in dH2O. Heat induced epitope retrieval (HIER) was then performed in pressure cooker for 20 min using either antigen-unmasking solution, Citrate-based at pH 6.0 (VectorLab H-3300-250) or antigen-unmasking solution, Tris-based at pH 9.0 (VectorLab H-3301-250) depending on antibody manufacturers' instructions. Following HIER, slides were cooled on ice for 10 min and then washed in PBS for 5 min. For intracellular stains, sections were permeabilized with 0.2% Triton X-100 in PBS for 10 min and washed twice in PBS for 5 min. For NRAS staining in liver slides were washed in 0.1% H2O2 in PBS for 15 min followed by washing twice in PBS to reduce endogenous peroxide activity. Sections were marked using hydrophobic pen and Non-specific antigen binding was blocked by incubating slides with CAS-Block™ Histochemical reagent (ThermoFisher, 008120) for 30-45 min in a humidified chamber. Slides were then incubated with primary antibody overnight in a humidified chamber at 4° C. For experiments utilising p21 antibody, slides were incubated with primary p21 antibody (p21 [EPR18021], Abcam, 1:200) overnight in a humidified chamber at 4° C. Slides were washed twice in PBS for 5 min and incubated with secondary antibody SignalStain® Boost IHC detection reagent Mouse/Rabbit, HRP (Cell Signalling Technology, 8125) for 30-45 min. Next, slides were washed twice in PBS for 5 min and incubated for 2-10 min with SignalStain® DAB substrate kit (CST, 8059) to detect HRP signal. Signal development was stopped when visible positive cells could be detected on a microscope, by washing slides in dH2O. To counterstain DAB signal, slides were incubated for 30 s in Modified Mayer's Hematoxylin (Lillie's Modification) (DAKO), washed in dH2O, and incubated for 30 s in 0.05% Ammonium solution (PBS) followed by washing in dH2O. Prior to mounting coverslips with VectaMount aqueous mounting media (VectorLab, H-5501-60) slides were dehydrated by washing 1 min in 75% Ethanol, 5 min in 100% Ethanol and 5 min in Histoclear®.
Oil Red O staining for lipids was carried out on liver tissue in OCT was snap-frozen in liquid N2 and cryosectioned (15 μM). Sections were equilibrated to RT for 10 min and then stained with 0.5% Oil Red O solution (w/v, in isopropanol, Sigma, O1391) for 5 min, rinsed in tap water and counterstained with Mayer's hematoxylin for 30 s. Then sections were again rinsed in tap water for 30 min and coverslips mounted. Images were acquired on Zeiss AxioScan Z.1 and ImageJ quantification of Oil-red stain area relative to background tissue area performed for 3 fields per section. […]

Cc1c(NS(=O)(=O)c2c(Cl)cc(-c3ccnc(N4CCNCC4)c3)cc2Cl)c(CC(C)C)nn1C [Compound 2]
Liver fibrosis (Sirius red staining) (FIG. 23): normalized | p21^CIP1-positive hepatocytes in the liver (FIG. 24A): reduction of p21^CIP1-positive hepatocytes | Lipid accumulation (steatosis) in liver (FIG. 24D): reduction in this lipid accumulation | Transcriptional signatures of collagen formation in liver (GSEA, FIG. 24E): downregulation | Transcriptional signature of Fridman senescence in liver (GSEA, FIGS. 24B-C): downregulation | Transcriptional signature of senescence-associated secretory phenotype in liver (GSEA, FIGS. 24B-C): downregulation | Col1a1 mRNA in liver (RT-qPCR, FIGS. 24F-G): lower | Col4a1 mRNA in liver (RT-qPCR, FIGS. 24F-G): lower | ALP in blood (before 3rd round, FIGS. 22B-D): normalised | ALT in blood (before 3rd round, FIGS. 22B-D): normalised | Albumin in blood (before 3rd round, FIGS. 22B-D): normalised | suPAR in blood (before 3rd round, versus vehicle, FIG. 22A): lower levels of suPAR
